Reference: patent US8470357B2, “Methods of treatment with Syk inhibitors” (Portola Pharmaceuticals, Inc., priority 2004, dated 2013)

Key:
[1] = system: platelet thrombus formation on type III collagen; test: Platelet thrombus formation on type III collagen under shear; type: cell-based, human
Experimental: Briefly, unanticoagulated human blood was exposed to type III collagen for 4 minutes at a rate of shear (e.g., about 850/sec.) equivalent to that encountered in coronary arteries.

[2] = system: leukocyte rolling on activated, collagen-adhering platelets; test: Recruitment of leukocytes to adherent, activated platelets under shear; type: cell-based; settings: increasing concentrations; citrated human blood with 2.5 μM Integrilin, type III collagen, 10 minutes, shear 650/sec (FIG. 3)
Experimental: Briefly, human blood, anticoagulated with citrate in the presence of 2.5 μM Integrilin, was exposed for 10 minutes to type III collagen at a shear rate of 650/sec.

[3] = system: leukocyte adhesion to IL-1β-activated human umbilical endothelial cells; test: Recruitment of leukocytes to activated endothelial cells under shear; type: cell-based; settings: 25 or 50 μM; citrated human blood, IL-1β-activated endothelial cells, shear 650/sec (FIG. 4)
Text: Briefly, cultured monolayers of human umbilical endothelial cells were activated by exposure to IL-1β for 24 hrs. Human blood, anticoagulated with citrate, was exposed to the activated endothelial cells at a shear rate of 650/sec for the time indicated.

## CC(=O)N(C)c1ccc(Nc2nc(NC3CCC3)c3[nH]cnc3n2)cc1.Cl [NVP-QAB205]
[1]; at 5, 10, and 25 μM (see FIG. 2)
  platelet adhesion: did not completely block platelet adhesion
[1]; increasing concentrations, unanticoagulated human blood, type III collagen, 4 minutes, shear about 850/sec (FIG. 2)
  inhibition of thrombus formation: caused inhibition of thrombus formation
[2]
  inhibition of leukocyte rolling: caused inhibition of leukocyte rolling
[3]
  inhibition of leukocyte adhesion to activated endothelial cells: marked inhibition of leukocyte adhesion
